Test results reported in US7642249B2, “Dihydrogen phosphate salt of a prostaglandin D2 receptor antagonist” (Aventis Pharmaceuticals Inc., priority 2005, dated 2010).
In brackets after ≈: the same amount, converted by molar mass. Counter-ions that a name gives are not always drawn.

Tests used:
Format in all cases: physicochemical
[1] = Solubility in phosphate buffer (PBS pH 7.4)
Method: (§1) The dihydrogen phosphate salt has increased aqueous solubility over the free form and the hydrochloride salt. The following chart lists the solubilities of the free form, the hydrochloride salt and the dihydrogen phosphate salt at 25° C. in phosphate buffer (PBS pH 7.4, a mixture of 19% of a 0.1M monobasic sodium phosphate solution and 81% of a 0.1M dibasic sodium phosphate solution) and the solubilities of the free form and the dihydrogen phosphate salt 37° C. in a simulated intestinal fluid under fasted conditions (“FaSSIF”, prepared according to Dressman J. B., Amidon G. L., Reppas C. and Shah V. P., Dissolution testing as a prognostic tool for oral drug absorption: immediate release dosage forms, Pharmaceutical Research: 1998, Vol. 15, No. 1, 11-22).

[2] = Solubility in simulated intestinal fluid under fasted conditions (FaSSIF)
Method: as §1

[3] = Dynamic water vapor sorption (DVS) hygroscopicity; settings: at 94% relative humidity (RH)
Method: Dynamic Water Vapor Sorption (DVS)
The water sorption profile is determined using a SMS Instruments Dynamic Vapor Sorption Analyzer Model DVS-1 or VTI Instruments Model SGA-100 Dynamic Vapor Sorption Analyzer. RH and weight are calibrated using standards. The dihydrogen phosphate salt is loaded and dried at ≦1% RH for 2.5 hours prior to starting the experiment. The RH is stepped from about 0 to 95% RH. The specimen weight is considered constant at each step when percent mass change is less than 0.005% over a 5-minute interval with a minimum absolute equilibration time of 15 minutes.

| Solubility (PBS pH 7.4, 25° C., μg/mL) [1] | Solubility in FaSSIF (37° C., ug/mL) [2] | weight gain during the sorption (DVS) [3] | SMILES |
| --- | --- | --- | --- |
| 5 μg/mL | – | – | COc1nc(NCCc2ccc(Cl)cc2Cl)cc(-c2cccc(C(C)(C)C(=O)O)c2)n1 [Hydrochloride salt, 2-(3-{6-[2-(2,4-dichloro-phenyl)-ethylamino]-2-methoxy-pyrimidin-4-yl}-phenyl)-2-methyl-propionic acid] |
| 15 μg/mL | 266 µg/mL | ~0.9% | COc1nc(NCCc2ccc(Cl)cc2Cl)cc(-c2cccc(C(C)(C)C(=O)O)c2)n1 [Dihydrogen phosphate salt, Dihydrogen phosphate salt of 2-(3-{6-[2-(2,4-Dichloro-phenyl)-ethylamino]-2-methoxy-pyrimidin-4-yl}-phenyl)-2-methyl-propionic acid] |
| <1 μg/mL | 14 µg/mL (≈ 30.4 µM) | – | COc1nc(NCCc2ccc(Cl)cc2Cl)cc(-c2cccc(C(C)(C)C(=O)O)c2)n1 [Free form, 2-(3-{6-[2-(2,4-dichloro-phenyl)-ethylamino]-2-methoxy-pyrimidin-4-yl}-phenyl)-2-methyl-propionic acid] |
